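How tested: cells in 96-well plates exposed to compound for 48 hours at five concentrations. GI50 = concentration required for 50% inhibition of growth. TGI is the concentration that stops growth completely.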
Experiments:
Test in all cases: NCI-60 cell line screen, 48 h
OVCAR-8 ovarian = test system: OVCAR-8 ovarian
SN12C renal = test system: SN12C renal
SK-MEL-28 melanoma = test system: SK-MEL-28 melanoma
BT-549 breast = test system: BT-549 breast
PC-3 prostate = test system: PC-3 prostate
OVCAR-4 ovarian = test system: OVCAR-4 ovarian
SF-295 CNS = test system: SF-295 CNS
A549 NSCLC = test system: A549 NSCLC
SK-MEL-5 melanoma = test system: SK-MEL-5 melanoma
HOP-62 NSCLC = test system: HOP-62 NSCLC
KM12 colon = test system: KM12 colon
M19-MEL melanoma = test system: M19-MEL melanoma
SF-268 CNS = test system: SF-268 CNS
T-47D breast = test system: T-47D breast
HCC-2998 colon = test system: HCC-2998 colon
SNB-19 CNS = test system: SNB-19 CNS
UACC-257 melanoma = test system: UACC-257 melanoma
CAKI-1 renal = test system: CAKI-1 renal
NCI-H226 lung = test system: NCI-H226 lung
SW-620 colon = test system: SW-620 colon
MALME-3M melanoma = test system: MALME-3M melanoma
SNB-75 CNS = test system: SNB-75 CNS
786-0 renal = test system: 786-0 renal
RXF-631 renal = test system: RXF-631 renal
A498 renal = test system: A498 renal
SR leukemia = test system: SR leukemia
DLD-1 colon = test system: DLD-1 colon
ACHN renal = test system: ACHN renal
MCF7 breast = test system: MCF7 breast
HS 578T breast = test system: HS 578T breast
KM20L2 colon = test system: KM20L2 colon
XF 498 CNS = test system: XF 498 CNS
MOLT-4 leukemia = test system: MOLT-4 leukemia
NCI/ADR-RES ovarian = test system: NCI/ADR-RES ovarian
OVCAR-5 ovarian = test system: OVCAR-5 ovarian
RXF 393 renal = test system: RXF 393 renal
HL-60(TB) leukemia = test system: HL-60(TB) leukemia
NCI-H460 lung = test system: NCI-H460 lung
CCRF-CEM leukemia = test system: CCRF-CEM leukemia
LOX IMVI melanoma = test system: LOX IMVI melanoma
DU-145 prostate = test system: DU-145 prostate
HCT-15 colon = test system: HCT-15 colon
EKVX NSCLC = test system: EKVX NSCLC
HCT-116 colon = test system: HCT-116 colon
IGROV1 ovarian = test system: IGROV1 ovarian
DMS 273 small cell lung = test system: DMS 273 small cell lung
UO-31 renal = test system: UO-31 renal
NCI-H522 lung = test system: NCI-H522 lung
M14 melanoma = test system: M14 melanoma
SK-OV-3 ovarian = test system: SK-OV-3 ovarian
OVCAR-3 ovarian = test system: OVCAR-3 ovarian
COLO 205 colon = test system: COLO 205 colon
DMS 114 small cell lung = test system: DMS 114 small cell lung
HOP-92 NSCLC = test system: HOP-92 NSCLC
UACC-62 melanoma = test system: UACC-62 melanoma
TK-10 renal = test system: TK-10 renal
MDA-MB-435 = test system: MDA-MB-435
RPMI-8226 leukemia = test system: RPMI-8226 leukemia
HT29 colon = test system: HT29 colon
MDA-MB-231 breast = test system: MDA-MB-231 breast
LXFL 529 NSCLC = test system: LXFL 529 NSCLC
NCI-H23 lung = test system: NCI-H23 lung
SF-539 CNS = test system: SF-539 CNS
SNB-78 CNS = test system: SNB-78 CNS
K-562 leukemia = test system: K-562 leukemia
SK-MEL-2 melanoma = test system: SK-MEL-2 melanoma
U251 CNS = test system: U251 CNS
HOP-18 NSCLC = test system: HOP-18 NSCLC

COC(=O)C(=O)CC(=O)CCn1ncc(Cl)c(Cl)c1=O
TGI (OVCAR-8 ovarian): 27.9 µM
TGI (SN12C renal): 29.9 µM
TGI (SK-MEL-28 melanoma): 21.9 µM
GI50 (BT-549 breast): 14.4 µM
TGI (BT-549 breast): 27.7 µM
GI50 (PC-3 prostate): 14.5 µM
TGI (PC-3 prostate): 37.2 µM
TGI (OVCAR-4 ovarian): 6.61 µM
TGI (SF-295 CNS): 23 µM
TGI (A549 NSCLC): 36.5 µM
TGI (SK-MEL-5 melanoma): 30.8 µM
TGI (HOP-62 NSCLC): 42.1 µM
TGI (KM12 colon): > 74.5 µM
TGI (M19-MEL melanoma): 15.3 µM
TGI (SF-268 CNS): 21.4 µM
GI50 (T-47D breast): 21.2 µM
TGI (T-47D breast): 40.2 µM
TGI (HCC-2998 colon): 13.1 µM
TGI (SNB-19 CNS): 32.5 µM
TGI (UACC-257 melanoma): 25.8 µM
TGI (CAKI-1 renal): 9.42 µM
TGI (NCI-H226 lung): 39.3 µM
TGI (SW-620 colon): 13.3 µM
TGI (MALME-3M melanoma): 21.3 µM
TGI (SNB-75 CNS): 35.6 µM
TGI (786-0 renal): 43.6 µM
TGI (RXF-631 renal): 23.6 µM
TGI (A498 renal): 49.6 µM
TGI (SR leukemia): 5.76 µM
TGI (DLD-1 colon): 24.9 µM
TGI (ACHN renal): 34.9 µM
GI50 (MCF7 breast): 15.6 µM
TGI (MCF7 breast): > 100 µM
GI50 (HS 578T breast): 27.3 µM
TGI (HS 578T breast): 87.5 µM
TGI (KM20L2 colon): 33.4 µM
TGI (XF 498 CNS): 44.6 µM
TGI (MOLT-4 leukemia): 22.1 µM
GI50 (NCI/ADR-RES ovarian): 18.6 µM
TGI (NCI/ADR-RES ovarian): 44.1 µM
TGI (OVCAR-5 ovarian): 34.9 µM
TGI (RXF 393 renal): 33.9 µM
TGI (HL-60(TB) leukemia): 9.68 µM
TGI (NCI-H460 lung): 32.3 µM
TGI (CCRF-CEM leukemia): 9.72 µM
TGI (LOX IMVI melanoma): 15.3 µM
GI50 (DU-145 prostate): 18.3 µM
TGI (DU-145 prostate): 35 µM
TGI (HCT-15 colon): 15.7 µM
TGI (EKVX NSCLC): 33.8 µM
TGI (HCT-116 colon): 23.7 µM
TGI (IGROV1 ovarian): 33.4 µM
TGI (DMS 273 small cell lung): 30.3 µM
TGI (UO-31 renal): 34.7 µM
TGI (NCI-H522 lung): 7.35 µM
TGI (M14 melanoma): 26.7 µM
TGI (SK-OV-3 ovarian): 40.8 µM
TGI (OVCAR-3 ovarian): 17.8 µM
TGI (COLO 205 colon): 31.8 µM
TGI (DMS 114 small cell lung): 8.69 µM
TGI (HOP-92 NSCLC): 28.2 µM
TGI (UACC-62 melanoma): 25.8 µM
TGI (TK-10 renal): > 85.5 µM
GI50 (MDA-MB-435): 3.37 µM
TGI (MDA-MB-435): 12.8 µM
TGI (RPMI-8226 leukemia): 52.6 µM
TGI (HT29 colon): 15 µM
GI50 (MDA-MB-231 breast): 7.88 µM
TGI (MDA-MB-231 breast): 20.7 µM
TGI (LXFL 529 NSCLC): 24.2 µM
TGI (NCI-H23 lung): 26.9 µM
TGI (SF-539 CNS): 35.2 µM
TGI (SNB-78 CNS): 50.8 µM
TGI (K-562 leukemia): 9.54 µM
TGI (SK-MEL-2 melanoma): 32.5 µM
TGI (U251 CNS): 22 µM

CN(C)/C(=N/C(=S)Nc1ccccc1)SCc1ccccc1
TGI (OVCAR-8 ovarian): > 100 µM
TGI (SN12C renal): > 100 µM
TGI (SK-MEL-28 melanoma): > 100 µM
TGI (OVCAR-4 ovarian): > 100 µM
TGI (SF-295 CNS): > 100 µM
TGI (A549 NSCLC): > 100 µM
TGI (SK-MEL-5 melanoma): > 100 µM
TGI (HOP-62 NSCLC): > 100 µM
TGI (KM12 colon): > 100 µM
TGI (M19-MEL melanoma): > 100 µM
TGI (SF-268 CNS): > 100 µM
TGI (HCC-2998 colon): > 100 µM
TGI (SNB-19 CNS): > 100 µM
TGI (UACC-257 melanoma): > 100 µM
TGI (CAKI-1 renal): > 100 µM
TGI (NCI-H226 lung): > 100 µM
TGI (SW-620 colon): > 100 µM
TGI (MALME-3M melanoma): > 100 µM
TGI (SNB-75 CNS): > 100 µM
TGI (786-0 renal): > 100 µM
TGI (RXF-631 renal): > 100 µM
TGI (A498 renal): > 100 µM
TGI (DLD-1 colon): > 100 µM
TGI (ACHN renal): > 100 µM
TGI (XF 498 CNS): > 100 µM
TGI (MOLT-4 leukemia): > 100 µM
TGI (OVCAR-5 ovarian): > 100 µM
TGI (RXF 393 renal): > 100 µM
TGI (HL-60(TB) leukemia): 51.4 µM
TGI (CCRF-CEM leukemia): > 100 µM
TGI (LOX IMVI melanoma): > 100 µM
TGI (HCT-15 colon): > 100 µM
TGI (HOP-18 NSCLC): > 100 µM
TGI (EKVX NSCLC): > 100 µM
TGI (IGROV1 ovarian): > 100 µM
TGI (DMS 273 small cell lung): > 100 µM
TGI (UO-31 renal): 95.8 µM
TGI (NCI-H522 lung): > 100 µM
TGI (M14 melanoma): > 100 µM
TGI (SK-OV-3 ovarian): > 100 µM
TGI (OVCAR-3 ovarian): > 100 µM
TGI (COLO 205 colon): > 100 µM
TGI (DMS 114 small cell lung): > 100 µM
TGI (UACC-62 melanoma): > 100 µM
TGI (TK-10 renal): > 100 µM
TGI (RPMI-8226 leukemia): > 100 µM
TGI (HT29 colon): > 100 µM
TGI (LXFL 529 NSCLC): > 100 µM
TGI (NCI-H23 lung): > 100 µM
TGI (SF-539 CNS): > 100 µM
TGI (SNB-78 CNS): > 100 µM
TGI (K-562 leukemia): > 100 µM
TGI (SK-MEL-2 melanoma): > 100 µM
TGI (U251 CNS): > 100 µM

— PubChem BioAssay (NCI)
